Measured values taken from patent US11780802B2, “Organic sulfonic acid salts of amino acid esters and process for their preparation” (priority 2017, dated 2023).

Assay: Stability in alkaline solution (residual ester bonds by 1H-NMR after storage)
Assay type: physicochemical
Settings: 7 d, 50 wt % in water
Description: To determine the stability under alkaline conditions, 50 wt % of the organic sulfonic acid salt of an amino acid ester is dissolved in water, pH is adjusted with sodium hydroxide to pH 8.5. The aqueous solution or emulsion is stored for 7 days at room temperature and 40° C. Before storage the integral of CH2-O—CO— (^1H-NMR in MeOD, ˜4.2 ppm) is measured. The stability of organic sulfonic acid salt of an amino acid ester is indicated by measuring the integral of CH2-O—CO— (^1H-NMR in MeOD) after storage.

Row | Compound | Residual amount of ester bonds after storage, calculated from 1H-NMR in MeOD (pH 8.5, 40° C.) | Residual amount of ester bonds after storage, calculated from 1H-NMR in MeOD (pH 8.5, RT)
1 | CCCCC(CC)COC(=O)C(C)N.CS(=O)(=O)O (stereo not drawn) [compound 4] | 46% | 72%
2 | CCCCC(CC)COC(=O)CN.CS(=O)(=O)O (stereo not drawn) [compound 3] | 20% | 37%
3 | CCCCC(CC)COC(=O)CCCCCN.CCCCCCCCCCCCc1ccc(S(=O)(=O)O)cc1 [Example 11, 6-amino-hexane acid-2-ethylhexylester 4-dodecylbenzene sulfonic acid salt] | 100% | 100%
